Experimental data taken from patent publication US7897769B2, “Intermediates for fluorinated dihydrotetrabenazine ether imaging agents and probes” (General Electric Company, priority 2007, dated 2011).
pKi: −log10 of the molar value.

Molecular target: T1, VMAT-2 (Rattus norvegicus, UniProt Q01827)
T1 construct: Novascreen Biosciences Corporation (contract assay provider) protocol Cat. No. 100-0751
Experiment: VMAT-2 binding affinity measurement (Novascreen protocol Cat. No. 100-0751)
Details: for pKi: VMAT-2 binding affinity; for binding affinity for VMAT-2 (in words): relative to a DTBZ control
Experimental: VMAT-2 binding affinity measurements were carried out by Novascreen Biosciences Corporation (Hanover, Md., USA) using protocol Cat. No. 100-0751. Novascreen, Inc. is a commercial provider of biological assays for the pharmaceutical industry.

T1 sequence (Q01827 whole entry): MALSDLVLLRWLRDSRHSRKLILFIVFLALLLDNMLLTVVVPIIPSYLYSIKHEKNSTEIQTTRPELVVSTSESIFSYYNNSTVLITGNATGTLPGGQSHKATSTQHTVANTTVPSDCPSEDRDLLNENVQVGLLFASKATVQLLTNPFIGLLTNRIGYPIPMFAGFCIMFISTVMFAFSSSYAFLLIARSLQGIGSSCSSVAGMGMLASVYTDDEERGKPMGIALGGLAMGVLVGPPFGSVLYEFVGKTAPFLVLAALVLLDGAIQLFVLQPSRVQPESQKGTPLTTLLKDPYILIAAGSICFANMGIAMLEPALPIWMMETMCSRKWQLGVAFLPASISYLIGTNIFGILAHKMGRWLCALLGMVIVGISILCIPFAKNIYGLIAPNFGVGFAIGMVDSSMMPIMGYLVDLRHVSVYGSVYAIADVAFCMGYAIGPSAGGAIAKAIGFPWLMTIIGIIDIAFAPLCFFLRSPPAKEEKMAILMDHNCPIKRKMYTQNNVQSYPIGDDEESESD

Row | Compound | pKi | binding affinity for VMAT-2 (in words)
1 | COc1cc2c(cc1OC)[C@H]1C[C@@H](OCCF)[C@H](CC(C)C)CN1CC2 [Compound 22] | 8.49 | very high binding affinity
2 | COc1cc2c(cc1OC)[C@H]1C[C@@H](OCCCF)[C@H](CC(C)C)CN1CC2 [Compound 23] | 8.19 | very high binding affinity
